Measurements from US20140212502A1, “NANO- AND MICRO-BUBBLES WITH ULTRASOUND-TRIGGERED RELEASE AND IMAGING FUNCTIONALITIES” (NATIONAL YANG-MING UNIVERSITY, priority 2013, published 2014).

Experiments:
[1] = Release test with and without sonication, confocal microscope observation of leakage and dispersion; assay type: physicochemical; conditions: sonication 1 MHz, 1 W/cm^2, duty ratio 20%, 20 min
Method: FIG. 5 is a diagram showing the confocal microscope observation for CPT-loaded CHC/SPIO NBs (FIG. 5(a)) and FITC-loaded CHC/SPIO NBs (FIG. 5(b), indicated by arrows). […] FIGS. 5(d) and (e) show the confocal microscope observation for CPT-loaded CHC/SPIO NBs after the release test without sonication and with sonication (ultrasonic frequency: 1 MHz, power density: 1 W/cm^2, duty ratio: 20%) for 20 min, respectively. […] Scale bar 5 μm.
The confocal photographs of the as-received CHC/SPIO MBs loaded with hydrophobic agent (CPT, blue fluorescence) and hydrophilic agent (FITC, green fluorescence) are shown in FIGS. 5(a) and 5(b), respectively. […] This implies that CHC/SPIO MBs can carry both hydrophobic and hydrophilic agents, and the encapsulation ability of CHC/SPIO MBs for CPT (a hydrophobic agent) was better than that for FITC (a hydrophilic agent). […] This was not observed for the CPT-containing medium (without CHC) under the same sonication for 20 min.

[2] = tested on: breast tumor cells (MDA-MB-231); assay: In vitro cytotoxicity, cell viability by MTT assay; assay type: cell-based; conditions: with sonication for 20 min, then 24 hr culture; 75 μL NB suspension or CPT 1.3 μg/mL
Method: FIG. 6 is a diagram showing the cell viability of breast tumor cells (MDA-MB-231) cultured under different conditions. In FIG. 6(a), the control group was performed on the cells cultured without adding the model drug (CPT) and performing sonication. In FIG. 6(b), cells were sonicated for 20 min. In FIG. 6(c), cells were cultured with the medium containing 75 μL of CPT-loaded CHC/SPIO NB suspension without sonication for 20 min. In FIG. 6(d), cells were cultured with the medium containing 75 μL of CPT-loaded CHC/SPIO NB suspension with sonication for 20 min. In FIG. 6(e), cells were cultured with CPT-containing medium (CPT/medium concentration: 1.3 μg/mL) under sonication for 20 min. […] After above treatments, the cell mediums were removed and the cells were washed with PBS. Then, fresh medium was added and further cultured for 24 hr. The cell viability was measured by MTT assay.
Thus, CPT molecules could efficiently access tumor cells. Moreover, the amphiphilic CHC molecules from ruptured bubbles also might be helpful to increase transmembrane permeation.

CC[C@@]1(O)C(=O)OCc2c1cc1n(c2=O)Cc2cc3ccccc3nc2-1 [CPT, camptothecin]
dispersion of CPT in hydrophilic medium [1]: not well-dispersed under sonication
cytotoxicity / cell viability [2]: higher viability than those treated with CPT-loaded CHC/SPIO NBs under sonication
